Assays:
[1] = tested on: Osteoclast precursor cells; assay: Osteoclast differentiation assay (acid phosphatase readout); type: cell-based
Description: Further, an osteoclast differentiation assay is used to assess the efficacy of Fms inhibitors for treating bone disease such as osteoarthritis. On day 0, Osteoclast Medium BulletKit (Lonza catalog #PT-8001, containing Media, FBS, L-Glutamine, PenStrep, RANKL, and M-CSF) media is thawed and the FBS, L-glutamine and PenStrep from the kit is added to 100 mL of Osteoclast Precursor Basal medium to provide the Osteoclast Precursor Growth Medium (OPGM). This is warmed to 37° C. Osteoclast precursor cells (Lonza catalog #2T-110) frozen in cryovial are warmed to 37° C. and transferred to a 50 mL conical tube. The cryovial is rinsed with OPGM and added dropwise to the conical tube of cells with swirling, then the volume is adjusted to 20-30 mL with addition of OPGM. The cells are centrifuged at 200×g for 15 minutes at room temperature and all but approximately 3 mL of supernatant is removed to a new conical tube. The cells are suspended in the remaining supernatant and the volume is adjusted to 10-15 mL with OPGM added dropwise with swirling. The cells are centrifuged at 200×g for 15 minutes at room temperature and all but approximately 1 mL of supernatant is removed. The cells are resuspended in the remaining supernatant, counted, and the volume adjusted with an appropriate amount of OPGM to provide approximately 1×10^5 cells/mL. A 0.1 mL aliquot of cells is added to each well of a 96-well plate. Compound to be tested is prepared in DMSO for plating at a high concentration of 2.5 mM, with 8 point 1:3 serial dilutions. A 1 μL aliquot of each compound dilution is added to a 96 well v-bottom polypropylene plate and 0.124 mL of OPGM is added to the compound. Then 50 μL at of the compound in OPGM is added to the osteoclast precursor cells in 96-well plate (providing highest test concentration of 5 μM). RANKL (2 μg) from the BulletKit is reconstituted in 1 mL of OPGM, then vortexed and centrifuged briefly. A 792 μL at aliquot of RANKL is added to 6 mL of OPGM and 50 μL at is added to low control wells. Then 76.6 μL M-CSF (10 μg/mL) from the BulletKit is added to the remaining 5.8 mL of OPGM/RANKL solution (4×RANKL/M-CSF/OPGM). A 50 μL at aliquot of this is added to the remaining wells, and the remainder is stored at 4° C. for later use. The plate is incubated at 37° C. for 6 days, then the remaining OPGM/RANKL/M-CSF solution is warmed to 37° C. The remaining approximately 198 μL is combined with 6 mL of OPGM. The media is aspirated from the osteoclast wells and 100 μL of RANKL/OPGM is added to the low controls. The remaining RANKL/OPGM is combined with the approximately 18.5 μL of remaining M-CSF. The remaining 4×RANKL/M-CSF/OPGM from day 0 is diluted to 1× and combined with the freshly prepared solution. A 0.1 mL aliquot of this is added to each osteoclast well and incubated for 37° C. for 1 day. The Acid Phosphatase kit (Cayman Chemical catalog #10008051) is warmed to room temperature. The assay buffer is diluted 5 mL with 45 mL of water. For each plate, two substrate tablets are dissolved in 4.5 mL of the assay buffer, mixing by vortex to break up the tablet. Stop solution is diluted 12 mL with 36 mL of water. In a tissue culture hood, 20 μL of each osteoclast well supernatant is transferred to a 96 well plate. A 30 μL aliquot of the substrate solution is added to each well and incubated at 37° C. for 20 minutes, then added 100 μL stop solution to each well. The absorbance of each well is read at 405 nm on Safire plate reader. The absorbance reading is plotted vs. concentration to provide the IC50 for each compound.

CYP3A4(BQ) = CYP3A4(BQ) (Homo sapiens, UniProt P08684); assay: CYP3A4(BQ) inhibition; type: in vitro ADME; conditions: CYP3A4, substrate BQ; read-out: Cyp IC50 3A4(BQ)
In short: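 Inhibition of human CYP3A4 (BQ substrate) was measured by fluorescence, since blocking metabolism of a known substrate lowers the fluorescent product signal. Compounds dissolved in DMSO at 100 mM were diluted into acetonitrile and then into NADPH regeneration cofactor mix, serially diluted 1:1 across 10 points, and preincubated in 384 well plates for 10 minutes at 37° C.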

Sequence of CYP3A4(BQ) (P08684 whole entry): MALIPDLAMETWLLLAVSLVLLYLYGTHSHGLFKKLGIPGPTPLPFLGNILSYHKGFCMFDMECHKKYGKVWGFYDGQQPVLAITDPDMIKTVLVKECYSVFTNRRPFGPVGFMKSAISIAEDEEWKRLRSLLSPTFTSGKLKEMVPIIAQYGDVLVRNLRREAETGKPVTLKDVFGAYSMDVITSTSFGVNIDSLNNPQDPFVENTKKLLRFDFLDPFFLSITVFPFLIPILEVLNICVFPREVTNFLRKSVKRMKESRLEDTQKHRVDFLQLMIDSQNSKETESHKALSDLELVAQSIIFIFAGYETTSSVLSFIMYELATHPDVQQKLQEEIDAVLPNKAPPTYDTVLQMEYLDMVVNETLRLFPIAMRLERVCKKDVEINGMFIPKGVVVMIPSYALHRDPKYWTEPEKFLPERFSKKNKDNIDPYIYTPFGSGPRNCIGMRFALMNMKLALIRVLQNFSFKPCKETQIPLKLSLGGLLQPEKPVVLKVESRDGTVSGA

| SMILES | IC50 [1] [µM] | IC50 (CYP3A4(BQ)) [µM] |
| --- | --- | --- |
| FC1(F)CCC(Nc2ncc(Cc3c[nH]c4ncc(Cl)cc34)cn2)CC1 [Compound P-3004] | < 0.1 | > 10 |
| Clc1cnc2[nH]cc(Cc3cnc(NC4CCCCCC4)nc3)c2c1 [Compound P-3006, [5-(5-Chloro-1H-pyrrolo[2,3-b]pyridin-3-ylmethyl)-pyrimidin-2-yl]-cycloheptyl-amine] | < 0.1 |  |
| COc1ccc(Nc2ccc(Cc3c[nH]c4ncc(C)cc34)c(F)n2)cn1 [Compound P-3019, [6-fluoro-5-(5-methyl-1H-pyrrolo[2,3-b]pyridin-3-ylmethyl)-pyridin-2-yl]-(6-methoxy-pyridin-3-yl)-amine] | < 0.1 | > 10 |
| CCOc1ccc(Nc2ncc(Cc3c[nH]c4ncc(C)cc34)cn2)cn1 [Compound P-3027, (6-Ethoxy-pyridin-3-yl)-[5-(5-methyl-1H-pyrrolo[2,3-b]pyridin-3-ylmethyl)-pyrimidin-2-yl]-amine] | < 0.1 |  |
| CCn1cc(Nc2ncc(Cc3c[nH]c4ncc(C)cc34)cn2)cn1 [Compound P-3036, (1-Ethyl-1H-pyrazol-4-yl)-[5-(5-methyl-1H-pyrrolo[2,3-b]pyridin-3-ylmethyl)-pyrimidin-2-yl]-amine] | < 0.1 |  |
| CCOc1ccc(Nc2ccc(Cc3c[nH]c4ncc(C)cc34)c(F)n2)cn1 [Compound P-3039, (6-ethoxy-pyridin-3-yl)-[6-fluoro-5-(5-methyl-1H-pyrrolo[2,3-b]pyridin-3-ylmethyl)-pyridin-2-yl]-amine] | < 0.1 |  |
| Cc1cnc2[nH]cc(Cc3ccc(Nc4ccc(C)nc4)nc3F)c2c1 [Compound P-3041, [6-Fluoro-5-(5-methyl-1H-pyrrolo[2,3-b]pyridin-3-ylmethyl)-pyridin-2-yl]-(6-methyl-pyridin-3-yl)-amine] | < 0.1 | > 10 |
| Cc1ccc(Nc2ccc(Cc3c[nH]c4ncc(Cl)cc34)c(F)n2)cn1 [Compound P-3042, [5-(5-Chloro-1H-pyrrolo[2,3-b]pyridin-3-ylmethyl)-6-fluoro-pyridin-2-yl]-(6-methyl-pyridin-3-yl)-amine] | < 0.1 |  |
| COc1ccc(Nc2ccc(Cc3c[nH]c4ncnc(OC)c34)c(F)n2)cn1 [Compound P-4001, [6-Fluoro-5-(4-methoxy-7H-pyrrolo[2,3-d]pyrimidin-5-ylmethyl)-pyridin-2-yl]-(6-methoxy-pyridin-3-yl)-amine] | < 0.1 |  |
| COc1ncnc2[nH]cc(Cc3ccc(Nc4ccc(C5CC5)nc4)nc3F)c12 [Compound P-4004, (6-Cyclopropyl-pyridin-3-yl)-[6-fluoro-5-(4-methoxy-7H-pyrrolo[2,3-d]pyrimidin-5-ylmethyl)-pyridin-2-yl]-amine] | < 0.1 | > 10 |
| CCOc1ccc(Nc2ccc(Cc3c[nH]c4ncnc(OC)c34)c(F)n2)cn1 [Compound P-4005, (6-Ethoxy-pyridin-3-yl)-[6-fluoro-5-(4-methoxy-7H-pyrrolo[2,3-d]pyrimidin-5-ylmethyl)-pyridin-2-yl]-amine] | < 0.1 | > 10 |
| CCOc1ncnc2[nH]cc(Cc3ccc(Nc4ccc(OC)nc4)nc3F)c12 [Compound P-4018, [5-(4-Ethoxy-7H-pyrrolo[2,3-d]pyrimidin-5-ylmethyl)-6-fluoro-pyridin-2-yl]-(6-methoxy-pyridin-3-yl)-amine] |  | > 10 |
| COCCOc1ncnc2[nH]cc(Cc3ccc(Nc4ccc(OC)nc4)nc3F)c12 [Compound P-4019, {6-Fluoro-5-[4-(2-methoxy-ethoxy)-7H-pyrrolo[2,3-d]pyrimidin-5-ylmethyl]-pyridin-2-yl}-(6-methoxy-pyridin-3-yl)-amine] |  | > 10 |
| COc1ccc(Nc2ccc(C(=O)c3c[nH]c4ncnc(C5CC5)c34)c(F)n2)cn1 [Compound P-4022, (4-cyclopropyl-7H-pyrrolo[2,3-d]pyrimidin-5-yl)-[2-fluoro-6-(6-methoxy-pyridin-3-ylamino)-pyridin-3-yl]-methanone] |  | > 10 |
| CCOc1ccc(Nc2ccc(C(=O)c3c[nH]c4ncnc(OC)c34)c(F)n2)cn1 [Compound P-4024, [6-(6-Ethoxy-pyridin-3-ylamino)-2-fluoro-pyridin-3-yl]-(4-methoxy-7H-pyrrolo[2,3-d]pyrimidin-5-yl)-methanone] |  | > 10 |
| CCOc1ncnc2[nH]cc(C(=O)c3ccc(Nc4ccc(OC)nc4)nc3F)c12 [Compound P-4025, (4-Ethoxy-7H-pyrrolo[2,3-d]pyrimidin-5-yl)-[2-fluoro-6-(6-methoxy-pyridin-3-ylamino)-pyridin-3-yl]-methanone] |  | > 10 |
| CCc1ccc(Nc2ccc(Cc3c[nH]c4ncnc(C5CC5)c34)c(F)n2)cn1 [Compound P-4028, [5-(4-Cyclopropyl-7H-pyrrolo[2,3-d]pyrimidin-5-ylmethyl)-6-fluoro-pyridin-2-yl]-(6-ethyl-pyridin-3-yl)-amine] |  | > 10 |
| CCc1ccc(Nc2ccc(C(=O)c3c[nH]c4ncnc(C5CC5)c34)c(F)n2)cn1 [Compound P-4029, (4-Cyclopropyl-7H-pyrrolo[2,3-d]pyrimidin-5-yl)-[6-(6-ethyl-pyridin-3-ylamino)-2-fluoro-pyridin-3-yl]-methanone] |  | > 10 |
| Cc1ccc(Nc2ccc(Cc3c[nH]c4ncnc(C5CC5)c34)c(F)n2)cn1 [Compound P-4030, [5-(4-Cyclopropyl-7H-pyrrolo[2,3-d]pyrimidin-5-ylmethyl)-6-fluoro-pyridin-2-yl]-(6-methyl-pyridin-3-yl)-amine] |  | > 10 |
| Cc1ccc(Nc2ccc(C(=O)c3c[nH]c4ncnc(C5CC5)c34)c(F)n2)cn1 [Compound P-4031, (4-Cyclopropyl-7H-pyrrolo[2,3-d]pyrimidin-5-yl)-[2-fluoro-6-(6-methyl-pyridin-3-ylamino)-pyridin-3-yl]-methanone] |  | > 10 |
| CCn1cc(Nc2ccc(Cc3c[nH]c4ncnc(C5CC5)c34)c(F)n2)cn1 [Compound P-4036, [5-(4-Cyclopropyl-7H-pyrrolo[2,3-d]pyrimidin-5-ylmethyl)-6-fluoro-pyridin-2-yl]-(1-ethyl-1H-pyrazol-4-yl)-amine] |  | 5 to 10 |
| CCn1cc(Nc2ccc(C(=O)c3c[nH]c4ncnc(C5CC5)c34)c(F)n2)cn1 [Compound P-4037, (4-Cyclopropyl-7H-pyrrolo[2,3-d]pyrimidin-5-yl)-[6-(1-ethyl-1H-pyrazol-4-ylamino)-2-fluoro-pyridin-3-yl]-methanone] |  | 5 to 10 |
| Fc1nc(NC2CCC(F)(F)CC2)ccc1Cc1c[nH]c2ncnc(NCC(F)(F)F)c12 [Compound P-4128, 5-[[6-[(4,4-difluorocyclohexyl)amino]-2-fluoro-3-pyridyl]methyl]-N-(2,2,2-trifluoroethyl)-7H-pyrrolo[2,3-d]pyrimidin-4-amine] |  | > 10 |
| Fc1nc(NC2CCC(F)(F)CC2)ccc1Cc1c[nH]c2ncnc(NC3CC3)c12 [Compound P-4129, N-cyclopropyl-5-[[6-[(4,4-difluorocyclohexyl)amino]-2-fluoro-3-pyridyl]methyl]-7H-pyrrolo[2,3-d]pyrimidin-4-amine] |  | < 5 |
| Fc1nc(Nc2ccc(C3CC3)nc2)ccc1Cc1c[nH]c2ncnc(NCC(F)(F)F)c12 [Compound P-4130, 5-[[6-[(6-cyclopropyl-3-pyridyl)amino]-2-fluoro-3-pyridyl]methyl]-N-(2,2,2-trifluoroethyl)-7H-pyrrolo[2,3-d]pyrimidin-4-amine] |  | > 10 |

From US8901118B2, “Compounds and methods for kinase modulation, and indications therefor” (Plexxikon Inc., priority 2010, dated 2014)
